Assay results: the supplement of paper PMC5908809

Key:
[1] = system: normal NK cells expanded with K562-aAPC; assay: percent inhibition of viability; higher = more inhibition; settings: 72 h, IL-2 2.5 ng/mL
Procedure: (§1)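 Drug sensitivity and resistance testing on K562-aAPC-expanded normal NK cells: 5 concentrations (10-fold steps over a 10,000-fold range), 72 h at 37 °C, viability by CellTiter-Glo normalised to DMSO and benzethonium chloride controls; DSS from the fitted curve.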

[2] = system: DERL-7 (IL-2 2.5 ng/mL); assay: as above; settings: 72 h
[3] = system: IMC-1 (IL-2 20 ng/mL); assay: as above; settings: 72 h
[4] = system: KAI3 (IL-2 2.5 ng/mL); assay: as above; settings: 72 h
[5] = system: KHYG-1 (IL-2 2.5 ng/mL); assay: as above; settings: 72 h
[6] = system: NK-92 (IL-2 2.5 ng/mL); assay: as above; settings: 72 h
[7] = system: NK-YS (IL-2 2.5 ng/mL); assay: as above; settings: 72 h
[8] = system: NKL (IL-2 2.5 ng/mL); assay: as above; settings: 72 h
[9] = system: SNK-6 (IL-2 2.5 ng/mL); assay: as above; settings: 72 h
[10] = system: YT (IL-2 2.5 ng/mL); assay: as above; settings: 72 h
[11] = system: normal primary NK cells, pool 1 (3 donors) (IL-2 2.5 ng/mL); assay: as above; settings: 72 h
[12] = system: normal primary NK cells, pool 1 (3 donors), resting (IL-2 0 ng/mL); assay: as above; settings: 72 h
[13] = system: normal primary NK cells, pool 2 (3 donors) (IL-2 2.5 ng/mL); assay: as above; settings: 72 h
[14] = system: normal primary NK cells, pool 3 (3 donors) (IL-2 2.5 ng/mL); assay: as above; settings: 72 h
[15] = system: normal NK cells expanded with K562-aAPC; assay: drug sensitivity score (DSS) (DSS units); higher = more sensitive; extreme values may be limits of the assay; settings: 72 h; IL-2 2.5 ng/mL
Procedure: as §1

[16] = system: DERL-7 (IL-2 2.5 ng/mL); assay: as above; settings: 72 h
[17] = system: IMC-1 (IL-2 20 ng/mL); assay: as above; settings: 72 h
[18] = system: KAI3 (IL-2 2.5 ng/mL); assay: as above; settings: 72 h
[19] = system: KHYG-1 (IL-2 2.5 ng/mL); assay: as above; settings: 72 h
[20] = system: NK-92 (IL-2 2.5 ng/mL); assay: as above; settings: 72 h
[21] = system: NK-YS (IL-2 2.5 ng/mL); assay: as above; settings: 72 h
[22] = system: NKL (IL-2 2.5 ng/mL); assay: as above; settings: 72 h
[23] = system: SNK-6 (IL-2 2.5 ng/mL); assay: as above; settings: 72 h
[24] = system: YT (IL-2 2.5 ng/mL); assay: as above; settings: 72 h
[25] = system: normal primary NK cells, pool 1 (3 donors) (IL-2 2.5 ng/mL); assay: as above; settings: 72 h
[26] = system: normal primary NK cells, pool 1 (3 donors), resting (IL-2 0 ng/mL); assay: as above; settings: 72 h
[27] = system: normal primary NK cells, pool 2 (3 donors) (IL-2 2.5 ng/mL); assay: as above; settings: 72 h
[28] = system: normal primary NK cells, pool 3 (3 donors) (IL-2 2.5 ng/mL); assay: as above; settings: 72 h

Cc1cn(-c2cc(NC(=O)c3ccc(C)c(Nc4nccc(-c5cccnc5)n4)c3)cc(C(F)(F)F)c2)cn1 [Nilotinib] (max concentration tested 10000 nM)
percent inhibition of viability [%]
Settings	1 nM	10 nM	100 nM	1000 nM	10000 nM
[1]	-1.85	-4.37	-3.71	7.45	26.5
[2]	-4.23	4.31	-3.59	-5.83	-5.46
[3]	-4.03	-1.9	2.58	0.7	-38.1
[4]	-3.54	-7.12	4.99	7.48	20
[5]	-0.89	0.67	11.9	5.38	17.9
[6]	12.4	5.92	27.1	23.8	33.9
[7]	-1.07	-0.64	9.04	11.3	15.7
[8]	-17.5	-6.91	-4.77	29.9	50.9
[9]	11.9	22.4	9.61	18.6	37.7
[10]	1.35	1.76	8.97	16.1	18.2
[11]	3.44	-14	-6.22	-13.6	-12.9
[12]	7.74	-12.7	-5.01	-11.6	-17.4
[13]	-15.7	-12.8	-10.3	-4.04	1.26
[14]	-13.2	-5.87	-1.78	-9.25	-1.3

Settings	drug sensitivity score
[15]	2.11
[16]	0
[17]	0
[18]	0.95
[19]	0.72
[20]	7.73
[21]	1.36
[22]	6.35
[23]	6.76
[24]	2.28
[25]	0
[26]	0
[27]	0
[28]	0

NC(=O)c1cccc2cn(-c3ccc([C@@H]4CCCNC4)cc3)nc12 [Niraparib] (max concentration tested 10000 nM)
percent inhibition of viability [%]
Settings	1 nM	10 nM	100 nM	1000 nM	10000 nM
[1]	0.08	1.98	2.28	18.1	32.5
[2]	0.54	3.15	0.76	8.32	68.3
[3]	-4.38	1.54	3.53	17.8	95.6
[4]	-1.88	8.15	4.77	19.1	78.8
[5]	-5.84	6.09	-1.02	10.6	92.7
[6]	4.26	12	8.71	15.1	92.8
[7]	-10.5	-0.47	-4.5	25.4	94.5
[8]	-9.92	5.83	22.1	72.4	82.9
[9]	-11.2	-10.2	1.34	0.26	86.7
[10]	-0.31	5.58	-0.5	-2.07	34
[11]	6.04	-0.22	-4.85	-8.51	-4.48
[12]	1.46	-12.9	-7.56	-30.2	-19.6
[13]	-5.25	-5.29	0.44	-5.11	2.06
[14]	-3.37	-7.45	1.14	-2	0.09

Settings	drug sensitivity score
[15]	3.36
[16]	5.15
[17]	8.2
[18]	7.35
[19]	6.89
[20]	7.65
[21]	9.06
[22]	16
[23]	4.87
[24]	1.42
[25]	0
[26]	0
[27]	0
[28]	0
